In patent US10273222B2 (CELGENE QUANTICEL RESEARCH, INC., priority 2013, dated 2019):

Experiments:
Format in all cases: biochemical
FBXL10 = FBXL10 (Homo sapiens (Human), UniProt Q8NHM5); experiment: FBXL10 in vitro enzyme inhibition assay (AlphaScreen)
In short: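 AlphaScreen read-out of H3K36me1 product, detected with anti-H3K36me1 antibody plus streptavidin donor and Protein A acceptor beads (final 10 μg/ml) in 50 mM HEPES pH 7.3, 10 mM NaCl, 0.005% Brij35, 5 mM EDTA, 2 mg/ml BSA. Beads incubated 2 h to overnight at room temperature; IC50 derived from AlphaScreen signal.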

JMJD2C = JMJD2C (Homo sapiens (Human), UniProt Q9H3R0); experiment: JMJD2C in vitro enzyme inhibition assay (TR-FRET)
Jarid1B = Jarid1B (Homo sapiens (Human), UniProt Q9UGL1); experiment: Jarid1B in vitro enzyme inhibition assay (TR-FRET)
Jarid1A = Jarid1A (Homo sapiens (Human), UniProt P29375); experiment: Jarid1A in vitro enzyme inhibition assay (TR-FRET)
Excerpt: The enzymatic assay of Jarid1A activity is based upon Time Resolved-Fluorescence Resonance Energy Transfer (TR-FRET) detection.

JMJD2A = JMJD2A (Homo sapiens (Human), UniProt O75164); experiment: JMJD2A in vitro enzyme inhibition assay (TR-FRET)
Chain of JMJD2A (O75164 1-350): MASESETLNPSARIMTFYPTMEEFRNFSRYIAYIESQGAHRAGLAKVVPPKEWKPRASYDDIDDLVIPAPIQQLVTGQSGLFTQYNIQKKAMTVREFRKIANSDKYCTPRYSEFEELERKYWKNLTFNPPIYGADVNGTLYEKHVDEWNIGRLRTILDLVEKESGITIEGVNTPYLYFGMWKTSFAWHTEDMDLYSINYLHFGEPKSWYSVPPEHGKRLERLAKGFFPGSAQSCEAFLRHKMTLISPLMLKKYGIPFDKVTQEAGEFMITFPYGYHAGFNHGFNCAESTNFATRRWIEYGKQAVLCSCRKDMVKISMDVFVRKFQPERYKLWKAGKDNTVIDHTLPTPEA
Description: This assay determines the ability of a test compound to inhibit Jarid1A, Jarid1B, JMJD2C, and JMJD2A demethylase activity. […] Baculovirus expressed JMJD2A (GenBank Accession #NM_014663, AA 1-350) was purchased from BPS Bioscience (Cat#50123).
The ability of test compounds to inhibit the activity of JMJD2A was determined in 384-well plate format under the following reaction conditions: 2 nM JMJD2A, 300 nM H3K9me3-biotin labeled peptide (Anaspec cat #64360), 2 μM alpha-ketoglutaric acid in assay buffer of 50 mM HEPES, pH7.3, 0.005% Brij35, 0.5 mM TCEP, 0.2 mg/ml BSA, 50 μM sodium L-ascorbate, and 2 μM ammonium iron(II) sulfate. Reaction product was determined quantitatively by TR-FRET after the addition of detection reagent Phycolink Streptavidin-allophycocyanin (Prozyme) and Europium-anti-di-methylated histone H3 lysine 9 (H3K9me2) antibody (PerkinElmer) in the presence of 5 mM EDTA in LANCE detection buffer (PerkinElmer) at a final concentration of 50 nM and 1 nM, respectively.
The assay reaction was initiated by the following: 2 μl of the mixture of 900 nM H3K9me3-biotin labeled peptide and 6 μM alpha-ketoglutaric acid with 2 μl of 11-point serial diluted inhibitor in 3% DMSO were added to each well of plate, followed by the addition of 2 μl of 6 nM JMJD2A to initiate the reaction. The reaction mixture was incubated at room temperature for 30 minutes, and terminated by the addition of 6 μl of 5 mM EDTA in LANCE detection buffer containing 100 nM Phycolink Streptavidin-allophycocyanin and 2 nM Europium-anti-H3K9me2 antibody. Plates were read by EnVisionMultilabel Reader in TR-FRET mode (excitation at 320 nm, emission at 615 nm and 665 nm) after 1 hour incubation at room temperature. A ratio was calculated (665/615) for each well and fitted to determine inhibition constant (IC50).

Chain of Jarid1B (Q9UGL1 2-751): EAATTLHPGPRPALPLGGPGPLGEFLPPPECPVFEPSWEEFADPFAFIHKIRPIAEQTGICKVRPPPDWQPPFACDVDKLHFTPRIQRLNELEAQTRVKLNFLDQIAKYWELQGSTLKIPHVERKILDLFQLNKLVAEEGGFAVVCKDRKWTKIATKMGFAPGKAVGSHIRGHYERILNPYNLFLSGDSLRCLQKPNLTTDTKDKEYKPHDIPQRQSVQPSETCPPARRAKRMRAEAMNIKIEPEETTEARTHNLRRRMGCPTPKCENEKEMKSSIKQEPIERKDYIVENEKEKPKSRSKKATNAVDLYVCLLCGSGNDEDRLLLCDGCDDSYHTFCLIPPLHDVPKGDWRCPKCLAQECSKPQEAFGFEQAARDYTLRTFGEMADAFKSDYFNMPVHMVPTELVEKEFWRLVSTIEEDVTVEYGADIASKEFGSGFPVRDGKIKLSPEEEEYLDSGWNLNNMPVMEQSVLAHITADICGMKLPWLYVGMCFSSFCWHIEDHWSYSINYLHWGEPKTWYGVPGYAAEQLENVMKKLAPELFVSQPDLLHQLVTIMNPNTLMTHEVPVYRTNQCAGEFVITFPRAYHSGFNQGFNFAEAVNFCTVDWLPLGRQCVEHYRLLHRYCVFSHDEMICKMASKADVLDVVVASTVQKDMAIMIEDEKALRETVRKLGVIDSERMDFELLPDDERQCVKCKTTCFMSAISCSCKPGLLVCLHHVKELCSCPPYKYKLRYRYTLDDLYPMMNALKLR
Chain of JMJD2C (Q9H3R0 2-372): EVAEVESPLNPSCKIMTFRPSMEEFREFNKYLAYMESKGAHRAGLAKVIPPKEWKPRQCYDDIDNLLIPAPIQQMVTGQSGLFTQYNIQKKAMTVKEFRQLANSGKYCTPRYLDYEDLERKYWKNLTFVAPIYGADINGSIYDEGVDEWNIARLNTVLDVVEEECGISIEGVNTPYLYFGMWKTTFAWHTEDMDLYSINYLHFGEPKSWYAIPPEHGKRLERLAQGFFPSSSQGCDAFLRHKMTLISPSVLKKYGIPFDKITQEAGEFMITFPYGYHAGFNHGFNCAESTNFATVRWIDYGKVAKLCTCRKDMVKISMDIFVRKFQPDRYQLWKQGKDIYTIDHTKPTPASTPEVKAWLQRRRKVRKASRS
Chain of Jarid1A (P29375 1-1090): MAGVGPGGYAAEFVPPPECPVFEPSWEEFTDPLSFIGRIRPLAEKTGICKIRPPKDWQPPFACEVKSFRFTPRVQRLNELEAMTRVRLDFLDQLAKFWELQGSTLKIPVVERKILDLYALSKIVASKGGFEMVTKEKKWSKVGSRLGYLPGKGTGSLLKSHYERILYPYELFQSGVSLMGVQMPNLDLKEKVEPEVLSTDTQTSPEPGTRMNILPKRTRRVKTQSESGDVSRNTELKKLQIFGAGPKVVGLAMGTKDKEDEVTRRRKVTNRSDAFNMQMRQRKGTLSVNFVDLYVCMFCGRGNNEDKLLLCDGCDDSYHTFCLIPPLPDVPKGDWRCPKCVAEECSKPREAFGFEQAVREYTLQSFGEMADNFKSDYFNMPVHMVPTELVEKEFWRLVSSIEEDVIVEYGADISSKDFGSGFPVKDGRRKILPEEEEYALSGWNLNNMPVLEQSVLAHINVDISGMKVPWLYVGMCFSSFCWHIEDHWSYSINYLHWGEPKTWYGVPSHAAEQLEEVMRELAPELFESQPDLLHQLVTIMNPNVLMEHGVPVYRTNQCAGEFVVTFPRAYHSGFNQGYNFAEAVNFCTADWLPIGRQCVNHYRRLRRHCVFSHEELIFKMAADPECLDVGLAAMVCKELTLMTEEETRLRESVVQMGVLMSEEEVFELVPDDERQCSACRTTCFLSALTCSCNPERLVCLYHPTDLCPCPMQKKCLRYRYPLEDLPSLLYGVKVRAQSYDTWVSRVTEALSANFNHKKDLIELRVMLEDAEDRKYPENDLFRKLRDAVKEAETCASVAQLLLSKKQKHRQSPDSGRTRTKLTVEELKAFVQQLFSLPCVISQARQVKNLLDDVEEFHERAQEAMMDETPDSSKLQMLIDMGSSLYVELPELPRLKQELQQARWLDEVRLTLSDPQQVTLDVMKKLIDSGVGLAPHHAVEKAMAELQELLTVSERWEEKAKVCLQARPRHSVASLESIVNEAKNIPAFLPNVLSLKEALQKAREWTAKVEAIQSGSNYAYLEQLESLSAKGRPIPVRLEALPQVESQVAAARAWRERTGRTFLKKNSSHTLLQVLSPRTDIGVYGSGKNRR
Chain of FBXL10 (Q8NHM5 1-650): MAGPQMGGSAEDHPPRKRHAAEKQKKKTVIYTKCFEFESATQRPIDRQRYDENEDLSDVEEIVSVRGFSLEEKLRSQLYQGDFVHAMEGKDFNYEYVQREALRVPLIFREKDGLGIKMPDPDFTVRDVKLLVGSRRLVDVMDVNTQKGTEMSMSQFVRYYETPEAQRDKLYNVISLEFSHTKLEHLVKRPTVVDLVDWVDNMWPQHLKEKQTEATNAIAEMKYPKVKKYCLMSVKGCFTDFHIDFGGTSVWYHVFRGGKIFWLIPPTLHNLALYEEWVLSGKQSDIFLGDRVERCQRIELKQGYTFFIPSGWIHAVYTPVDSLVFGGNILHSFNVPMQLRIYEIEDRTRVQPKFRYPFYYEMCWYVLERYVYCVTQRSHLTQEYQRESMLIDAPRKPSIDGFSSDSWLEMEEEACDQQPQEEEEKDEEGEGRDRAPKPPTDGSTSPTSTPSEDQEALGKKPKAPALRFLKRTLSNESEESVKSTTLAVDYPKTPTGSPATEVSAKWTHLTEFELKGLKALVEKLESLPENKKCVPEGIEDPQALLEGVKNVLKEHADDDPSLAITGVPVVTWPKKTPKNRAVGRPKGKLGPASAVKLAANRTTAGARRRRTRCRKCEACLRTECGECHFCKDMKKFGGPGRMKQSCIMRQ

IC50 (FBXL10) [nM] | IC50 (JMJD2C) [nM] | IC50 (Jarid1B) [nM] | IC50 (Jarid1A) [nM] | IC50 (JMJD2A) [nM] | SMILES
≤ 100 | ≤ 100 | ≤ 100 | ≤ 100 | ≤ 100 | CN(CCn1cnc(-c2cc(C(=O)O)ccn2)c1)Cc1cccc(F)c1 [Example 69, 2-[1-[2-[(3-fluorophenyl)methyl-methylamino]ethyl]imidazol-4-yl]pyridine-4-carboxylic acid]
≤ 100 | ≤ 100 | ≤ 100 | ≤ 100 | ≤ 100 | CN(CCn1cnc(-c2cc(C(=O)O)ccn2)c1)Cc1ccc(C(F)(F)F)cc1 [Example 68, 2-[1-[2-[methyl-[[4-(trifluoromethyl)phenyl]methyl]amino]ethyl]imidazol-4-yl]pyridine-4-carboxylic acid]
≤ 100 | 100 to 1000 | ≤ 100 | ≤ 100 | 100 to 1000 | O=C(O)c1ccnc(-c2cn(C3CCc4c(F)cccc43)cn2)c1 (stereo not drawn) [Example 110, 2-[1-(4-fluoro-2,3-dihydro-1H-inden-1-yl)imidazol-4-yl]pyridine-4-carboxylic acid]
≤ 100 | 100 to 1000 | ≤ 100 | ≤ 100 | 100 to 1000 | CN(CCn1cnc(-c2cc(C(=O)O)ccn2)c1)c1ccc(Cl)cc1 [Example 87, 2-[1-[2-(4-chloro-N-methylanilino)ethyl]imidazol-4-yl]pyridine-4-carboxylic acid]
≤ 100 | 1000 to 10000 | ≤ 100 | 100 to 1000 | > 10000 | Cn1cnc(-c2cc(C(=O)O)ccn2)c1-c1ccc(F)cc1OCC1CC1 [Example 120, 2-[5-[2-(cyclopropylmethoxy)-4-fluorophenyl]-1-methylimidazol-4-yl]pyridine-4-carboxylic acid]
100 to 1000 | ≤ 100 | ≤ 100 | ≤ 100 | ≤ 100 | CN(C)CCOCCn1cnc(-c2cc(C(=O)O)ccn2)c1 [Example 48, 2-(1-{2-[2-(dimethylamino)ethoxy]ethyl}-1H-imidazol-4-yl)pyridine-4-carboxylic acid]
100 to 1000 | 100 to 1000 | ≤ 100 | ≤ 100 | 1000 to 10000 | c1cc(-c2nn[nH]n2)cc(-c2cn(CCN3CCCC3)cn2)n1 [Example 63, 2-{1-[2-(pyrrolidin-1-yl)ethyl]-1H-imidazol-4-yl}-4-(2H-tetrazol-5-yl)pyridine]
> 10000 | 100 to 1000 | ≤ 100 | ≤ 100 | > 10000 | CN(CCn1cnc(-c2cc(C(=O)NC#N)ccn2)c1)CC1CC1 [Example 64, N-cyano-2-(1-{2-[(cyclopropylmethyl)(methyl)amino]ethyl}-1H-imidazol-4-yl)pyridine-4-carboxamide]
100 to 1000 | 100 to 1000 | ≤ 100 | ≤ 100 | 100 to 1000 | O=C(O)c1ccnc(-c2cn(CCN3CCc4cc(F)ccc43)cn2)c1 [Example 91, 2-[1-[2-(5-fluoro-2,3-dihydroindol-1-yl)ethyl]imidazol-4-yl]pyridine-4-carboxylic acid]
≤ 100 | 1000 to 10000 | 100 to 1000 | 100 to 1000 | > 10000 | CC(C)C(c1ccccc1)n1cnc(-c2cc(-c3nn[nH]n3)ccn2)c1 (stereo not drawn) [Example 145, 2-[1-(2-methyl-1-phenylpropyl)imidazol-4-yl]-4-(2H-tetrazol-5-yl)pyridine]
≤ 100 | 1000 to 10000 | ≤ 100 | 100 to 1000 | > 10000 | FC(F)(F)c1cccc(Cn2cnc(-c3cc(-c4nn[nH]n4)ccn3)c2)c1Cl [Example 154, 2-[1-[[2-chloro-3-(trifluoromethyl)phenyl]methyl]imidazol-4-yl]-4-(2H-tetrazol-5-yl)pyridine]
≤ 100 | 1000 to 10000 | ≤ 100 | 100 to 1000 | > 10000 | Cn1cnc(-c2cc(-c3nn[nH]n3)ccn2)c1-c1ccc(F)cc1OCC1CC1 [Example 150, 2-[5-[2-(cyclopropylmethoxy)-4-fluorophenyl]-1-methylimidazol-4-yl]-4-(2H-tetrazol-5-yl)pyridine]
≤ 100 | ≤ 100 | ≤ 100 | ≤ 100 | ≤ 100 | Cc1ccc(CN(C)CCn2cnc(-c3cc(C(=O)O)ccn3)c2)cc1 [Example 67, 2-[1-[2-[methyl-[(4-methylphenyl)methyl]amino]ethyl]imidazol-4-yl]pyridine-4-carboxylic acid]
≤ 100 | 1000 to 10000 | ≤ 100 | – | > 10000 | c1ccc2c(CCn3cnc(-c4cc(-c5nn[nH]n5)ccn4)c3)cccc2c1 [Example 142, 2-[1-(2-naphthalen-1-ylethyl)imidazol-4-yl]-4-(2H-tetrazol-5-yl)pyridine]
≤ 100 | 1000 to 10000 | ≤ 100 | ≤ 100 | – | Cn1cnc(-c2cc(C(=O)O)ccn2)c1-c1ccc(Cl)cc1C(F)(F)F [Example 27, 2-{5-[4-chloro-2-(trifluoromethyl)phenyl]-1-methyl-1H-imidazol-4-yl}pyridine-4-carboxylic acid]
100 to 1000 | 100 to 1000 | ≤ 100 | ≤ 100 | – | Cn1cnc(-c2cc(C(=O)O)ccn2)c1Br [Example 2, 2-(5-bromo-1-methyl-1H-imidazol-4-yl)pyridine-4-carboxylic acid]
100 to 1000 | 1000 to 10000 | 100 to 1000 | 100 to 1000 | – | CCOc1ccc(-c2c(-c3cc(C(=O)O)ccn3)ncn2C)cc1 [Example 14, 2-[5-(4-ethoxyphenyl)-1-methyl-1H-imidazol-4-yl]pyridine-4-carboxylic acid]
100 to 1000 | ≤ 100 | ≤ 100 | ≤ 100 | – | O=C(O)c1ccnc(-c2cn(CC3CCCN3)cn2)c1 (stereo not drawn) [Example 53, 2-[1-(pyrrolidin-2-ylmethyl)-1H-imidazol-4-yl]pyridine-4-carboxylic acid]
≤ 100 | 100 to 1000 | ≤ 100 | ≤ 100 | – | O=C(O)c1ccnc(-c2cn(CCN(Cc3ccc(Cl)cc3)C3CC3)cn2)c1 [Example 85, 2-[1-[2-[(4-chlorophenyl)methyl-cyclopropylamino]ethyl]imidazol-4-yl]pyridine-4-carboxylic acid]
≤ 100 | ≤ 100 | ≤ 100 | ≤ 100 | – | O=C(O)c1ccnc(-c2cn(CCN3Cc4ccc(Cl)cc4C3)cn2)c1 [Example 82, 2-[1-[2-(5-chloro-1,3-dihydroisoindol-2-yl)ethyl]imidazol-4-yl]pyridine-4-carboxylic acid]
≤ 100 | 100 to 1000 | ≤ 100 | ≤ 100 | – | O=C(O)c1ccnc(-c2cn(CC3CCCO3)cn2)c1 (stereo not drawn) [Example 51, 2-[1-(tetrahydrofuran-2-ylmethyl)-1H-imidazol-4-yl]pyridine-4-carboxylic acid]
≤ 100 | ≤ 100 | ≤ 100 | ≤ 100 | – | COc1ccccc1CNCCn1cnc(-c2cc(C(=O)O)ccn2)c1 [Example 77, 2-[1-[2-[(2-methoxyphenyl)methylamino]ethyl]imidazol-4-yl]pyridine-4-carboxylic acid]
100 to 1000 | 100 to 1000 | ≤ 100 | ≤ 100 | – | Cn1cnc(-c2cc(C(=O)O)ccn2)c1-c1ccc(Cl)c(C(F)(F)F)c1 [Example 31, 2-{5-[4-chloro-3-(trifluoromethyl)phenyl]-1-methyl-1H-imidazol-4-yl}pyridine-4-carboxylic acid]
≤ 100 | 100 to 1000 | ≤ 100 | ≤ 100 | – | C#Cc1ccc(-c2c(-c3cc(C(=O)O)ccn3)ncn2C)cc1 [Example 21, 2-[5-(4-ethynylphenyl)-1-methyl-1H-imidazol-4-yl]pyridine-4-carboxylic acid]
≤ 100 | 1000 to 10000 | ≤ 100 | ≤ 100 | – | COCCCn1cnc(-c2cc(C(=O)O)ccn2)c1-c1ccc(Cl)c(F)c1 [Example 36, 2-[5-(4-chloro-3-fluorophenyl)-1-(3-methoxypropyl)-1H-imidazol-4-yl]pyridine-4-carboxylic acid]
100 to 1000 | 1000 to 10000 | ≤ 100 | ≤ 100 | – | Cn1cnc(-c2cc(C(=O)O)ccn2)c1-c1ccc(C(F)(F)F)cc1 [Example 6, 2-{1-methyl-5-[4-(trifluoromethyl)phenyl]-1H-imidazol-4-yl}pyridine-4-carboxylic acid]
≤ 100 | 1000 to 10000 | 100 to 1000 | – | > 10000 | c1ccc2c(c1)CCCC2Cn1cnc(-c2cc(-c3nn[nH]n3)ccn2)c1 (stereo not drawn) [Example 143, 2-[1-(1,2,3,4-tetrahydronaphthalen-1-ylmethyl)imidazol-4-yl]-4-(2H-tetrazol-5-yl)pyridine]
≤ 100 | 100 to 1000 | ≤ 100 | ≤ 100 | – | Cn1cnc(-c2cc(C(=O)O)ccn2)c1-c1ccc(Cl)cc1Cl [Example 33, 2-[5-(2,4-dichlorophenyl)-1-methyl-1H-imidazol-4-yl]pyridine-4-carboxylic acid]
100 to 1000 | 1000 to 10000 | 100 to 1000 | 100 to 1000 | – | Cn1cnc(-c2cc(C(=O)O)ccn2)c1-c1ccc(OC(F)(F)F)cc1 [Example 13, 2-{1-methyl-5-[4-(trifluoromethoxy)phenyl]-1H-imidazol-4-yl}pyridine-4-carboxylic acid]
